Data on five compounds can be found in ChEMBL document CHEMBL5346961, “Discovery and Evaluation of 3-Quinoxalin Urea Derivatives as Potent, Selective, and Orally Available ATM Inhibitors Combined with Chemotherapy for the Treatment of Cancer via Goal-Oriented Molecule Generation and Virtual Screening” (J Med Chem, 2023).

Active and inactive are the calls of the source. The calls are words filed in the database; no cut-off is given here.

Series [1] in a line: Metabolic stability in human liver microsomes assessed as clearance at 1 uM in presence of NADPH-regenerating system by LC-MS/MS analysis. The class given is ADME, Microsome.
The nature of series [2]: Metabolic stability in human liver microsomes assessed as half life at 1 uM in presence of NADPH-regenerating system by LC-MS/MS analysis. The format is ADME, Microsome.
In series [3] the test system is HCT-116. The experiment in a line: Inhibition of colony formation in human HCT-116 cells at 0.01 uM preincubated for 1 hr followed by exposure to 2 Gy gamma irradiation and measured after 1 week by crystal violet staining based […] assay relative to control. The format is functional. Particulars: HCT-116, light or radiation study, time 169 hrs.
Series [4] deals with HCT-116. As to the kind of experiment: Inhibition of colony formation in human HCT-116 cells preincubated for 1 hr followed by exposure to 2 Gy gamma irradiation and measured after 1 week by crystal violet staining based […] assay. The format is functional, cell-based. Particulars: HCT-116, light or radiation study.
The test system of series [5] is HCT-116. The experiment in a line: Antiproliferative activity against human HCT-116 cells assessed as cell survival at 1 uM incubated for 6 days by MTT assay relative to control. The class given is functional. Particulars: HCT-116, 144 h, time 6 day, read-out: Survival.
Series [6] concerns HCT-116. The experiment in a line: Antiproliferative activity against human HCT-116 cells assessed as reduction in cell viability incubated for 6 days by MTT assay. The class given is functional, cell-based. Particulars: HCT-116, 144 h.
Series [7] has as its system SW-620. The experiment in a line: Antiproliferative activity against human SW620 cells assessed as reduction in cell viability incubated for 6 days by MTT assay. The format is functional, cell-based. Particulars: SW-620, 144 h.
In series [8] the test system is MCF7. As to the kind of experiment: Antiproliferative activity against human MCF7 cells assessed as reduction in cell viability incubated for 6 days by MTT assay. The class given is functional, cell-based. Particulars: MCF7, 144 h.
Series [9] deals with HCT-116. The experiment in a line: Inhibition of colony formation in human HCT-116 cells assessed as assessed as fold change in IC50 in presence of ionizing radiation. The class given is functional.
The subject of series [10] is MCF7. As to the kind of experiment: Synergistic antiproliferative activity against human MCF7 cells assessed as fold increase in etoposide IC50 at 200 nM measured after 6 days by MTT assay. The class given is functional. Particulars: time 6 day.
For series [11], the system named is MCF7. The experiment in a line: Synergistic antiproliferative activity against human MCF7 cells assessed as fold increase in irinotecan IC50 at 200 nM measured after 6 days by MTT assay. The class given is functional. Particulars: time 6 day.
Series [12] deals with SW-620. As to the kind of experiment: Synergistic antiproliferative activity against human SW620 cells assessed as fold increase in irinotecan IC50 at 200 nM measured after 6 days by MTT assay. The class given is functional. Particulars: time 6 day.
The subject of series [13] is SW-620. The experiment in a line: Synergistic inhibition of colony formation in human SW620 cells assessed as fold increase in irinotecan IC50 at 200 nM preincubated for 1 hr followed by irinotecan addition and measured after 1 week by crystal violet staining based […] assay. The format is functional. Particulars: time 169 hrs.
Series [14] can be described thus: Cmax in Balb/C mouse at 10 mg/kg,iv measured upto 48 hrs by LC-MS/MS analysis. The class given is ADME, organism-based. Details: time < 48 hrs, dose 10 mg/kg, route iv. Particulars: in vivo.
Series [15] is described as follows: Cmax in Balb/C mouse at 10 mg/kg,po measured upto 48 hrs by LC-MS/MS analysis. The class given is ADME, organism-based. More on the design: dose 10 mg/kg, time < 48 hrs, route po. Particulars: in vivo.
The nature of series [16]: Tmax in Balb/C mouse at 10 mg/kg,iv measured upto 48 hrs by LC-MS/MS analysis. The class given is ADME, organism-based. Particulars: in vivo.
Series [17] is described as follows: Tmax in Balb/C mouse at 10 mg/kg,po measured upto 48 hrs by LC-MS/MS analysis. The format is ADME, organism-based. Particulars: in vivo.
Series [18] in a line: Half life in Balb/C mouse at 10 mg/kg,iv measured upto 48 hrs by LC-MS/MS analysis. The format is ADME, organism-based. Particulars: in vivo.
Series [19] can be described thus: Half life in Balb/C mouse at 10 mg/kg,po measured upto 48 hrs by LC-MS/MS analysis. The format is ADME, organism-based. Particulars: in vivo.
Series [20] in a line: Clearance in Balb/C mouse at 10 mg/kg,iv measured upto 48 hrs by LC-MS/MS analysis. The class given is ADME, organism-based. Particulars: in vivo.
The nature of series [21]: Clearance in Balb/C mouse at 10 mg/kg,po measured upto 48 hrs by LC-MS/MS analysis. The class given is ADME, organism-based. Particulars: in vivo.
Series [22] is described as follows: Volume of distribution at steady state in Balb/C mouse at 10 mg/kg,iv measured upto 48 hrs by LC-MS/MS analysis. The class given is ADME, organism-based. Particulars: in vivo, read-out: Vdss.
The nature of series [23]: Volume of distribution at steady state in Balb/C mouse at 10 mg/kg,po measured upto 48 hrs by LC-MS/MS analysis. The class given is ADME, organism-based. Particulars: in vivo.
Series [24] is described as follows: AUC (0 to t) in Balb/C mouse at 10 mg/kg,iv measured upto 48 hrs by LC-MS/MS analysis. The class given is ADME, organism-based. Details: time < 48 hrs, dose 10 mg/kg, route iv. Particulars: in vivo.
Series [25] in a line: AUC (0 to t) in Balb/C mouse at 10 mg/kg,po measured upto 48 hrs by LC-MS/MS analysis. The class given is ADME, organism-based. Details: dose 10 mg/kg, time < 48 hrs, route po. Particulars: in vivo.
The nature of series [26]: Oral bioavailability in Balb/C mouse at 10 mg/kg measured upto 48 hrs by LC-MS/MS analysis. The class given is ADME, organism-based. Particulars: in vivo.
Series [27] concerns SW-620. The experiment in a line: Antitumor activity against human SW620 cells xenografted in BALB/c nude mouse model assessed as tumor growth inhibition at 40 mg/kg, po administered once daily for 3 days weekly after irinotecan post treatment for 21 days by caliper method relative to control. Particulars: SW-620, 504 h, time 21 day, read-out: TGI. The format is functional.

For series [28], the system named is HCT-116. As to the kind of experiment: Induction of DNA damage in human HCT-116 cells assessed as reduction in ATM phosphorylation at S1981 residue at 2 uM measured after 4 hrs by Western blot analysis. The format is functional, cell-based.
Series [29] deals with HCT-116. The experiment in a line: Induction of DNA damage in human HCT-116 cells assessed as reduction in p21 phosphorylation at T145 residue at 2 uM measured after 4 hrs by Western blot analysis. The class given is functional, cell-based.
The subject of series [30] is MCF7. As to the kind of experiment: cells. Particulars: Homo sapiens, MCF7, 144 h.
In series [31] the target is T1, Serine-protein kinase ATM (Homo sapiens, UniProt Q13315). The experiment in a line: Inhibition of flag tagged- ATM (unknown origin) expressed in Escherichia coli BL21 incubated for 20 mins in presence of ATP.
In series [32] the target is DNA-dependent protein kinase catalytic subunit (Homo sapiens, UniProt P78527). As to the kind of experiment: Inhibition of DNA-PK (unknown origin).
In series [33] the target is Phosphatidylinositol 4,5-bisphosphate 3-kinase catalytic subunit alpha isoform (Homo sapiens, UniProt P42336). The experiment in a line: Inhibition of PIK3alpha (unknown origin).
The target in series [34] is T2, Serine/threonine-protein kinase ATR (Homo sapiens, UniProt Q13535). The experiment in a line: Inhibition of ATR (unknown origin) assessed as remaining activity at 1 uM in presence of [gamma33P-ATP] by radiometric assay.
Series [35] addresses T1, Serine-protein kinase ATM. The experiment in a line: Inhibition of ATM (unknown origin) assessed as remaining activity at 1 uM preincubated with compound for 30 mins followed by substrate addition and measured after 2 hrs by HTRF method relative to control. Particulars: time 2.5 hrs.
The nature of series [36]: Metabolic stability in human liver microsomes assessed as M1 metabolite formation at 1 uM in presence of NADPH-regenerating system by LC-MS/MS analysis. The class given is ADME, Microsome.
For series [37], the target named is T2, Serine/threonine-protein kinase ATR. As to the kind of experiment: Inhibition of flag tagged- ATR (unknown origin) expressed in Escherichia coli BL21 incubated for 20 mins in presence of ATP.
Series [38] in a line: Inhibition of PIK3 (unknown origin). Details: species or system Homo sapiens.

T1 sequence (Q13315 whole entry): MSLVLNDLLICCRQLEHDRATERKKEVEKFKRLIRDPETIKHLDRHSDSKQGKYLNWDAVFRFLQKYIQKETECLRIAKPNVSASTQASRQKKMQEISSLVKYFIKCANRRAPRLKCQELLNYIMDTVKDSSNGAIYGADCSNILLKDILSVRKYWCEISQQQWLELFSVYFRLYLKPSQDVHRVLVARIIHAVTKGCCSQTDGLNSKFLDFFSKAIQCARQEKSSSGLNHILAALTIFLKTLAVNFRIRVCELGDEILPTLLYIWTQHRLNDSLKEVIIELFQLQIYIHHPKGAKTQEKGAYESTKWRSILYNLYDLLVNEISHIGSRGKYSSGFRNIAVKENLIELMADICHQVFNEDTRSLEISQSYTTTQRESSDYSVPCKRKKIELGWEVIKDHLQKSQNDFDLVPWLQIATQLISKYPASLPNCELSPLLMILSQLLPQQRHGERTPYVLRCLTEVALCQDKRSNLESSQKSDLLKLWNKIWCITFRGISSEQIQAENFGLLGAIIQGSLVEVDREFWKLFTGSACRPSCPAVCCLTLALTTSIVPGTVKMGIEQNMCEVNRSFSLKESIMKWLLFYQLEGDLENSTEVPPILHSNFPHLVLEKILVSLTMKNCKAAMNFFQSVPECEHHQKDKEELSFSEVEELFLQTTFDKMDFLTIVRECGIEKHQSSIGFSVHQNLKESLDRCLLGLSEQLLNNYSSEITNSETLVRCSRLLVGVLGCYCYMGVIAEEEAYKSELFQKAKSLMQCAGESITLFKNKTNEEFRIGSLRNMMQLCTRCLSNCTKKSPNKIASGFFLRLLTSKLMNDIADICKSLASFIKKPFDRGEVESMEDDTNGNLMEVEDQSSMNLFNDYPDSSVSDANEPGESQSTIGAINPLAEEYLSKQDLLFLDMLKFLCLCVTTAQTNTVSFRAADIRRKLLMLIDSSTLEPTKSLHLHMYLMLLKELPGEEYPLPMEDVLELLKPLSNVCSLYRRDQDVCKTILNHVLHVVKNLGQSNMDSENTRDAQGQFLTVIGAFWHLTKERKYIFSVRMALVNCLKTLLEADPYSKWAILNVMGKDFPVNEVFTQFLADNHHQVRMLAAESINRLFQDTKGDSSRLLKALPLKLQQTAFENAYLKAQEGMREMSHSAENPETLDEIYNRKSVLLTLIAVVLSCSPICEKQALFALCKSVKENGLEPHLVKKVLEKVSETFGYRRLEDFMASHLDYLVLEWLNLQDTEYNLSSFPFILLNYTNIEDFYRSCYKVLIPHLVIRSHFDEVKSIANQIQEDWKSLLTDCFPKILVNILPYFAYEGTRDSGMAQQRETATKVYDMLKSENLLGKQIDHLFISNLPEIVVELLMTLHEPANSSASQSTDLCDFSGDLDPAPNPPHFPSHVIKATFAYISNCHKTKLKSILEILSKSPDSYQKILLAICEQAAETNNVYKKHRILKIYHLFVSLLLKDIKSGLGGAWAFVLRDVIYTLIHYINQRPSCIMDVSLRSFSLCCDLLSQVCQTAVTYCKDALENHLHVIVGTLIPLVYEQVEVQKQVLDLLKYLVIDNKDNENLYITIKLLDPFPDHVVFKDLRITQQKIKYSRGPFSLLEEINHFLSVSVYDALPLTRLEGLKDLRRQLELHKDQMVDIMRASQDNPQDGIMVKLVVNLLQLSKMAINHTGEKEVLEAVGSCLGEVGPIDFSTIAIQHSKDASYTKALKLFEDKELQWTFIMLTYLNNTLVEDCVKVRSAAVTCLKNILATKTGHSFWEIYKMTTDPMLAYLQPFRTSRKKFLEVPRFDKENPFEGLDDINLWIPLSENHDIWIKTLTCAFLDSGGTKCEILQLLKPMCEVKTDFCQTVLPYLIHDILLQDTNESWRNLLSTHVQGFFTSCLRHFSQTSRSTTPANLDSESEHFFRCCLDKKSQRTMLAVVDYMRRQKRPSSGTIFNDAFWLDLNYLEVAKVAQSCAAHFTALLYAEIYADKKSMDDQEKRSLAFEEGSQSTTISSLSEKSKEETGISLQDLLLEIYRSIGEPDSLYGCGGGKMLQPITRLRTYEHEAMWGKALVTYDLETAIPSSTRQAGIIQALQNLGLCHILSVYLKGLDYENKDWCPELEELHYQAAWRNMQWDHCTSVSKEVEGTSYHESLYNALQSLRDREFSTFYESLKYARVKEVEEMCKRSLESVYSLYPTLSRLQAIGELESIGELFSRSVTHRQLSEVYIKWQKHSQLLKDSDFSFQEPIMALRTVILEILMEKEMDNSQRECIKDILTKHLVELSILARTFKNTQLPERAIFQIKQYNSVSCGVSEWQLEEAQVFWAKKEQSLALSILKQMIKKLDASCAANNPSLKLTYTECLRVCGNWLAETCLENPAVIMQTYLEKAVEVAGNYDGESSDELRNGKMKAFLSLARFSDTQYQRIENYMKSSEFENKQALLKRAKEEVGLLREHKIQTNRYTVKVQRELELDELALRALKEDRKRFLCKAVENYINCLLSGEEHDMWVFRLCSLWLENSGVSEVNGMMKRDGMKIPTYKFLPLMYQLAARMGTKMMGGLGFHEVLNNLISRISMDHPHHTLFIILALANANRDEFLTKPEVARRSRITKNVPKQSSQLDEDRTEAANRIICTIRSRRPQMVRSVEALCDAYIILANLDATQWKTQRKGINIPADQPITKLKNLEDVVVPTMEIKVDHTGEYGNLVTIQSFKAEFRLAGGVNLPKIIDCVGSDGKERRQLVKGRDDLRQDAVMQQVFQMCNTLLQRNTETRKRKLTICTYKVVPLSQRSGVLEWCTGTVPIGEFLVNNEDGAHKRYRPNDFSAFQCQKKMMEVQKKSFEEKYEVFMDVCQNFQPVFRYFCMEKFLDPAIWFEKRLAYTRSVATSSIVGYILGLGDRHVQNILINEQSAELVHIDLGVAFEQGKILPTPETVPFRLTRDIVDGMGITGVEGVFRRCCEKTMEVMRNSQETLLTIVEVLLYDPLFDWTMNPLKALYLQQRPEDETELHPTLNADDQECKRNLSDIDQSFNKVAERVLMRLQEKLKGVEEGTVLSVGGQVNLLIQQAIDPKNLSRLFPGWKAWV
Sequence of Phosphatidylinositol 4,5-bisphosphate 3-kinase catalytic subunit alpha isoform (P42336 whole entry, canonical isoform): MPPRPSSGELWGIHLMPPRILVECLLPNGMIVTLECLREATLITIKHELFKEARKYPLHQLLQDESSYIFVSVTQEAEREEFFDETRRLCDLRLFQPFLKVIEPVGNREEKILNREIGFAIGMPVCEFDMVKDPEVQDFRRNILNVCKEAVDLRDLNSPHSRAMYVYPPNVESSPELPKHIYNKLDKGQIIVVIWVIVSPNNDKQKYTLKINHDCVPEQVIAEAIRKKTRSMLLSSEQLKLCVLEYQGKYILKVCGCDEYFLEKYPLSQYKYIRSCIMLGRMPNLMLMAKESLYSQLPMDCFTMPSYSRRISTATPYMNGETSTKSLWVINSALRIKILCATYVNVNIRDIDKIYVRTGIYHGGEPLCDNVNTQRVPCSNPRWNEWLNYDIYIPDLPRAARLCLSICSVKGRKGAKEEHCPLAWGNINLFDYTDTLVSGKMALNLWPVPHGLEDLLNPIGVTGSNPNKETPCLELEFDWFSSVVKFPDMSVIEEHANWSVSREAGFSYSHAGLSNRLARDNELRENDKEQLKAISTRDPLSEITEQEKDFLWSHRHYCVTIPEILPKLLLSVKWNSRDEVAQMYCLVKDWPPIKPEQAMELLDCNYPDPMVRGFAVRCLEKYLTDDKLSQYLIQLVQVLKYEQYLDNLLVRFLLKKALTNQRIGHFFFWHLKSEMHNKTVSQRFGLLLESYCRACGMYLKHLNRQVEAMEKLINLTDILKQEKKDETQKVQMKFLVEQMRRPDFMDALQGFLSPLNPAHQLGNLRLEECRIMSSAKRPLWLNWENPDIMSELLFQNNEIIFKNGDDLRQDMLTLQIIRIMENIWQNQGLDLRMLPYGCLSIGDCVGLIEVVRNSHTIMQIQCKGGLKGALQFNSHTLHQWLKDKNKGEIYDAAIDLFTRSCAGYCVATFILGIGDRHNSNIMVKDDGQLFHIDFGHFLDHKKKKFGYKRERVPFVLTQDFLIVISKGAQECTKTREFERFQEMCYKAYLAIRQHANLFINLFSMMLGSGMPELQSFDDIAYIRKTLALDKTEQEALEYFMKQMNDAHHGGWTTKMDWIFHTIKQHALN

On to `COCc1ccc(-c2ccc3ncc(C(N)=O)c(N[C@@H](C)C4CCOCC4)c3c2)cn1`, for which the CLH in [1] turned out to be 7.2 mL/min/g. Further, the half-life at 1 µM in [2] turned out to be 193 min. Also, the inhibition at 0.01 µM in [3] is 13.2%. Moreover, the IC50 was 20 nM in [4], greater than 9 µM in series [6], greater than 9 µM in [7] and greater than 9 µM in series [8]. The viability at 1 µM in [5] is greater than 83%. Moreover, the “fold change (FC)” value is 6520 in [9]; 1.4 in series [10]; 2.1 in series [11]; 1.5 in [12]; 3.3 in [13]. Moreover, the figures for the maximum concentration (Cmax) in series [14] and in [15] were 3010 ng/mL and 1360 ng/mL, respectively. For the same compound, the values for the Tmax in series [16] and in series [17] were 4.8 min and 1.33 h, respectively. In addition, the t1/2 stood at 4.28 h in series [18] and 3.16 h in series [19]. This compound gave a clearance in series [20] of 22 mL/min/kg. The same compound had a CL/F in series [21] of 23 mL/min/kg. In series [22], the Vd came to 7.68 L/kg. The compound further came in with a Vdss in series [23] of 6.49 L/kg. Besides, the AUCt was 7.77202 µg·h/mL in series [24] and 7.39676 µg·h/mL in series [25]. The compound also returned a bioavailability in series [26] of 95.2%. Further, the inhibition in vivo at 40 mg/kg in series [27] amounted to 77.7%. Moreover, the outcome in series [28] and in series [29] was Active.

`COc1cc([C@@H]2c3cc4c(cc3[C@@H](O[C@@H]3O[C@@H]5CO[C@@H](C)O[C@H]5[C@H](O)[C@H]3O)[C@H]3COC(=O)[C@H]23)OCO4)cc(OC)c1O` [ETOPOSIDE] came in with an IC50 in [30] of 210 nM.

Take `CC(C)(C#N)c1ccc(N2C(=O)OCc3cnc4ccc(-c5cnc6ccccc6c5)cc4c32)cc1`: the IC50 was 545 nM in series [31], 36 nM in [32] and 170 nM in [33].

In the case of `CN(C)CCCOc1ccc(-c2ccc3ncc(NC(=O)NC4CCCCC4)nc3c2)cn1`, the values for the Activity in [34] and in series [35] were 102% and -5%, respectively. Further, the CLH in series [1] is 293 mL/min/g. The half-life at 1 µM in series [2] is 5 min. In addition, in series [36], the Drug metabolism result is given as “Metabolite_Detected”.

Take `Cn1c(=O)n(-c2ccc(C(C)(C)C#N)cc2)c2c3cc(-c4cnc5ccccc5c4)ccc3ncc21` [DACTOLISIB]: the IC50 was 21 nM in series [37] and 4 nM in series [38].
